{
  "source": "patent US20180126048A1",
  "about": "“NANOPARTICLE-MEDICATED GENETIC DELIVERY OF GROWTH INHIBITING GENES ON BALLOON ANGIOPLASTY TO SUPPRESS INTIMAL HYPERPLASIA” (Board of Education of the Vocational Schools in the County …, priority 2014, published 2018)",
  "system": "left carotid artery",
  "test": "Glycerol infusion into the artery (cannulation) during carotid injury surgery",
  "assay_type": "in vivo, rat",
  "settings": "glycerol infused into the artery, compared to glycerol coated on a balloon",
  "procedure": "In total, nine surgeries were performed on nine separate rats. The initial two surgeries represented the first control group—standard left carotid artery injury surgeries. The next two surgeries comprised the second control group—rats which received a standard left carotid artery injury surgery, modified slightly to include a glycerol coating without nanoparticles-carried plasmids on the catheter to test whether or not the substance (without the shRNA-encoding plasmid) had any noteworthy effects on the artery and/or the overall health of the animal before the nanoparticle treatment was delivered. The balloon was immersed in glycerol until 100 μL had covered its surface. Another two surgeries served as an experimental group to compare the method of delivery with the glycerol-coated balloon to a more direct method of delivery: infusion. After the arteriotomy was performed, the artery was cannulated (filled) with a syringe of 100 μL of 50% glycerol and flushed. The procedure then proceeded as previously described. The last three surgeries served as the experimental group utilizing the nanoparticles suspended in the glycerol that coated the balloon.\nIntimal hyperplasia was further quantified using a software program, Image J, developed by the National Institutes of Health, which calculates the intimal area through image analysis. […]",
  "data": [
    {"smiles": "OCC(O)CO", "note": "[glycerol]", "values": [
      {"measurement": "blood clot formation after infusion", "value": "blood clot formation"}
    ]}
  ]
}
